Test systems include Hs-578T; MOLT-4; RXF 393; SK-OV-3; Malme-3M; SK-MEL-5; HT-29; HCT-116; KM12; NCI-H522; BT-549; UO-31; UACC-257; PC-3; NCI-H460; ACHN; LOX IMVI; DU-145; T47D; HL-60.
Common to all, as to assay: growth of human tumour cells (NCI), 48 h

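Where inhibition never reached the appropriate level, the endpoint shown equals the highest concentration tested. Otherwise, values were interpolated linearly from a five-concentration, 48-hour dose response in 96-well plates. GI50 marks 50% less growth.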 Calls of active or inactive are those of the source. Rule as the data show it: active = GI50 up to about 1.1 µM and inactive = higher.

The values that follow come from ChEMBL document CHEMBL1201862, “PubChem BioAssay data set” (2004).

In the case of `NS(=O)(=O)c1cccc(NC(=S)NC(=O)Nc2ccc(Cl)c(Cl)c2)c1`, the GI50 is 17 µM (inactive) in the test with Hs-578T; 12 µM (inactive) with MOLT-4; 22.8 µM (inactive) with RXF 393; 21.4 µM (inactive) in the test on SK-OV-3; 11.5 µM (inactive) in the test with Malme-3M; 17.1 µM (inactive) in the test with SK-MEL-5. Also, the GI50 in the test on HT-29 was 25.9 µM (inactive); in the test on HCT-116 it was 17.1 µM (inactive); with KM12, 15.8 µM (inactive); in the test with NCI-H522, 12.8 µM (inactive); with BT-549 it was 16.1 µM (inactive); in the test with UO-31, 16.6 µM (inactive). Besides, the GI50 in the test with UACC-257 was 27.4 µM (inactive); in the test on PC-3, 22.4 µM (inactive); in the test with NCI-H460, 16.7 µM (inactive); in the test on ACHN it was 19.5 µM (inactive); in the test with LOX IMVI it was 16.7 µM (inactive); with DU-145, 30.1 µM (inactive). Moreover, the GI50 with T47D is 18.1 µM (inactive).

As to `Cc1cc2c(cc1-c1cc3c(cc1C)C(C(C)C)=C(O)C(=O)/C3=C\Nc1c3ccccc3nc3ccccc13)/C(=C/Nc1c3ccccc3nc3ccccc13)C(=O)C(O)=C2C(C)C`, the GI50 is 3.77 µM (inactive) with Hs-578T; 3.27 µM (inactive) in the test with MOLT-4; 5.24 µM (inactive) with RXF 393; 3.34 µM (inactive) in the test with SK-OV-3; 2.2 µM (inactive) in the test on Malme-3M; 3.99 µM (inactive) in the test with SK-MEL-5. In addition, the GI50 was 1.54 µM (inactive) with HT-29; 6.25 µM (inactive) in the test with HCT-116; 3.09 µM (inactive) in the test with KM12; 1.13 µM (inactive) with NCI-H522; 5.85 µM (inactive) in the test with BT-549; 3.03 µM (inactive) in the test on UO-31. Also, the GI50 with UACC-257 was 4.34 µM (inactive); in the test with PC-3, 3.25 µM (inactive); in the test with NCI-H460, 2.09 µM (inactive); in the test on ACHN, 1.49 µM (inactive); with HL-60, 2.78 µM (inactive); in the test on DU-145 it was 6.3 µM (inactive). The GI50 in the test on T47D is 6.17 µM (inactive).

With `COc1ccc(C2=C3SC=c4ccccc4=C3ON=C2c2ccccc2)cc1`, the GI50 is > 100 µM (inactive) in the test on Hs-578T; 37.2 µM (inactive) in the test with MOLT-4; > 100 µM (inactive) with RXF 393; > 100 µM (inactive) in the test with Malme-3M; > 100 µM (inactive) with SK-MEL-5; > 100 µM (inactive) with HT-29. For the same molecule, the GI50 was 57.4 µM (inactive) in the test with HCT-116; > 100 µM (inactive) in the test with KM12; 53.8 µM (inactive) with NCI-H522; > 100 µM (inactive) with BT-549; > 100 µM (inactive) with UO-31; > 100 µM (inactive) in the test with UACC-257. Moreover, the GI50 with PC-3, in the test with NCI-H460, in the test with ACHN, in the test with LOX IMVI, in the test with HL-60 and in the test on DU-145 was > 100 µM (inactive) in each case. For the same molecule, the GI50 in the test on T47D is 25.4 µM (inactive).

`C=C(C)C12CC(COC(=O)c3ccccc3)C34OC5(OC1C3C1OC1(CO)C(O)C1(O)C(OC(=O)c3ccccc3)C(C)C(C(C)CCCCCCC5O)C14)O2` (centres undefined): the GI50 with Hs-578T is 26.5 µM (inactive); in the test with RXF 393, 52.6 µM (inactive); with SK-OV-3, > 100 µM (inactive); in the test with Malme-3M, 25.2 µM (inactive); with SK-MEL-5, 11.6 µM (inactive); in the test on HT-29 it was 19.5 µM (inactive). Moreover, the GI50 with HCT-116 was 52 µM (inactive); in the test on KM12, 40.8 µM (inactive); in the test on NCI-H522, 46.5 µM (inactive); in the test on BT-549 it was > 100 µM (inactive); in the test on UO-31, 70.1 µM (inactive); in the test on UACC-257, 49.3 µM (inactive). Also, the GI50 in the test with PC-3 was 38.8 µM (inactive); in the test on NCI-H460, 33.6 µM (inactive); in the test on ACHN it was 24.3 µM (inactive); in the test with LOX IMVI, 66.5 µM (inactive); in the test with DU-145 it was 53.8 µM (inactive); with T47D, > 87.9 µM (inactive).

In the case of `Cc1cc(C)c2c(c1)C1=NCCN1C2(O)c1ccc(Cl)cc1` (centres undefined), the GI50 was 16.4 µM (inactive) in the test on Hs-578T; 37.6 µM (inactive) in the test with MOLT-4; 13.6 µM (inactive) with RXF 393; 15 µM (inactive) with SK-OV-3; 14.6 µM (inactive) with SK-MEL-5; 16.5 µM (inactive) in the test with HT-29. Also, the GI50 in the test with HCT-116 is 13.3 µM (inactive); with KM12, 15.3 µM (inactive); in the test on BT-549 it was 13.2 µM (inactive); in the test with UO-31, 13.9 µM (inactive); in the test on UACC-257, 17.1 µM (inactive); with PC-3, 16 µM (inactive). Moreover, the GI50 was 14.9 µM (inactive) in the test on NCI-H460; 16.1 µM (inactive) in the test on ACHN; 29.3 µM (inactive) in the test on LOX IMVI; 19.9 µM (inactive) in the test on HL-60; 19.5 µM (inactive) with DU-145; 16.4 µM (inactive) in the test with T47D.

For `C[C@@]1(c2ccccc2)O[C@@H]2C[C@H]3[C@@H]4CCC5=CC(=O)C=C[C@]5(C)[C@@]4(F)[C@@H](O)C[C@]3(C)[C@]2(C(=O)CO)O1` [AMCINAFIDE], the GI50 is 18.7 µM (inactive) with Hs-578T; 20.1 µM (inactive) in the test on RXF 393; 13.8 µM (inactive) in the test with Malme-3M; 14.9 µM (inactive) in the test on SK-MEL-5; 17 µM (inactive) with HT-29; 14.6 µM (inactive) in the test with HCT-116. Also, the GI50 with KM12 was 16.4 µM (inactive); with NCI-H522, 11.5 µM (inactive); in the test with BT-549, 18.2 µM (inactive); in the test on UO-31, 18.1 µM (inactive); in the test with UACC-257, 17.6 µM (inactive); in the test with PC-3, 16 µM (inactive). In addition, the GI50 with NCI-H460 is 14.6 µM (inactive); in the test with ACHN, 18.1 µM (inactive); in the test on LOX IMVI, 23.8 µM (inactive); in the test on HL-60 it was 18.8 µM (inactive); in the test on DU-145, 20.1 µM (inactive); in the test on T47D, 20.2 µM (inactive).

In the case of `CCN(CC)c1ccc(C2Nc3ccc4ccccc4c3C3=C2C(=O)CCC3)cc1` (centres undefined), the GI50 with Hs-578T was 11.2 µM (inactive); in the test with MOLT-4, > 100 µM (inactive); with RXF 393 it was 17.3 µM (inactive); with SK-OV-3, 38.4 µM (inactive); in the test on Malme-3M it was > 100 µM (inactive); in the test with HT-29, 55.7 µM (inactive). The GI50 is 25.3 µM (inactive) in the test with HCT-116; > 100 µM (inactive) in the test with KM12; 60.8 µM (inactive) in the test with BT-549; 26.1 µM (inactive) in the test on UO-31; > 100 µM (inactive) in the test with UACC-257; 39.3 µM (inactive) with PC-3. Besides, the GI50 in the test with NCI-H460 is > 100 µM (inactive); with ACHN, 12.2 µM (inactive); in the test with DU-145, 23.9 µM (inactive); in the test on T47D, 39 µM (inactive).

Take `CSC(=S)NN=C1CCCC1.CSC(=S)NN=C1CCCC1.[Zn+2]`: the GI50 in the test with Hs-578T is 29.2 µM (inactive); in the test with MOLT-4, 9.66 µM (inactive); in the test with RXF 393, 28.4 µM (inactive); in the test on SK-OV-3 it was > 100 µM (inactive); in the test with Malme-3M, 12.5 µM (inactive); with SK-MEL-5, 57.1 µM (inactive). For the same molecule, the GI50 with HT-29 is 19.5 µM (inactive); in the test on HCT-116, 14.7 µM (inactive); in the test with KM12, 41 µM (inactive); in the test on NCI-H522, 15.7 µM (inactive); in the test on BT-549 it was 24 µM (inactive); in the test on UO-31, 13.4 µM (inactive). Moreover, the GI50 in the test with UACC-257 was 24 µM (inactive); in the test on PC-3, 25.8 µM (inactive); with NCI-H460 it was 31.6 µM (inactive); in the test with ACHN, 1.83 µM (inactive); in the test with LOX IMVI, 10.7 µM (inactive); in the test on DU-145, 58.5 µM (inactive). Besides, the GI50 in the test with T47D is 33.5 µM (inactive).

With `CC(C)NCC(O)c1ccc(O)c2ncccc12` (centres undefined), the GI50 in the test with Hs-578T is > 100 µM (inactive); with MOLT-4, 18.2 µM (inactive); in the test with RXF 393 it was 91 µM (inactive); in the test with SK-OV-3, 21.9 µM (inactive); in the test with SK-MEL-5 it was 66.4 µM (inactive); with HT-29 it was 36.4 µM (inactive). The GI50 with HCT-116 was 26.4 µM (inactive); in the test on KM12, 54.6 µM (inactive); with NCI-H522 it was 47.2 µM (inactive); in the test on BT-549, > 100 µM (inactive); in the test on UO-31 it was 67.6 µM (inactive); in the test with UACC-257, 50 µM (inactive). Also, the GI50 with PC-3 was 46.5 µM (inactive); in the test on NCI-H460, 5.58 µM (inactive); with ACHN it was 42.3 µM (inactive); in the test with LOX IMVI, 30.3 µM (inactive); with HL-60, 24.6 µM (inactive); in the test with DU-145 it was 37.2 µM (inactive). Besides, the GI50 in the test on T47D is 33.8 µM (inactive).

For `CC(=O)c1c(O)c(C)c(O)c(Cc2c(O)c3c(c(C(=O)/C=C/c4ccccc4)c2O)OC(C)(C)C=C3)c1O` [ROTTLERIN], the GI50 in the test with Hs-578T was 3.65 µM (inactive); in the test on MOLT-4, 1.89 µM (inactive); in the test on SK-OV-3, 4.04 µM (inactive); in the test with Malme-3M, 2.84 µM (inactive); in the test on SK-MEL-5 it was 1.87 µM (inactive); in the test on HT-29, 3.24 µM (inactive). The GI50 in the test on HCT-116 is 1.82 µM (inactive); in the test with KM12, 2.81 µM (inactive); with NCI-H522, 1.95 µM (inactive); in the test with BT-549 it was 2.51 µM (inactive); in the test on UO-31, 2.26 µM (inactive); with UACC-257, 2.21 µM (inactive). Moreover, the GI50 is 1.11 µM (active) with PC-3; 2.94 µM (inactive) in the test on NCI-H460; 3.51 µM (inactive) in the test with ACHN; 2.86 µM (inactive) in the test with LOX IMVI; 2.64 µM (inactive) in the test with HL-60; 3.49 µM (inactive) in the test with DU-145. Moreover, the GI50 in the test on T47D is 1.85 µM (inactive).
